Values joined by “and” are separate entries in the source; they are usually repeats but may differ in a detail not shown here. Equal entries are not always repeated.
Tested on: 313798-341-R-J2-PDC spheroids, viability
Assay: Anticancer human tumor 313798-341-R-J2-PDC patient-derived cervical squamous cell carcinoma cell line growth inhibition [PI3K]
Conditions: spheroids with HUVEC and MSC; for viability, T/C: stronger effect = lower value; active = viability on the fitted dose curve at most 10% of control; inactive = the rest
Summary of the method: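 Three cell types, namely tumor cells, endothelial cells and mesenchymal stem cells, formed each spheroid. Combinations with four PI3K inhibitors were screened at clinically achievable concentrations decreasing by half-log, and spheroid viability was recorded.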

[1] = curve of first compound, second compound 0.0316 µM
[2] = curve of first compound, second compound 0.1 µM
[3] = curve of first compound, second compound 0.316 µM
[4] = curve of first compound, second compound 1 µM
[5] = curve of first compound, second compound 3.16 µM
[6] = curve of first compound, second compound 10 µM
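Note: spheroids exposed to compounds for seven days.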
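Throughout, for viability, T/C: 100% = DMSO vehicle control viability.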

CC1(C)CCC(CN2CCN(c3ccc(C(=O)NS(=O)(=O)c4ccc(NCC5CCOCC5)c([N+](=O)[O-])c4)c(Oc4cnc5[nH]ccc5c4)c3)CC2)=C(c2ccc(Cl)cc2)C1 + CC(Nc1ncnc2nc[nH]c12)c1cc2cccc(Cl)c2c(=O)n1-c1ccccc1
inactive: viability, T/C (second compound 0.0316 µM, first compound 0.0316 µM) 104% | viability, T/C (second compound 0.0316 µM, first compound 0.1 µM) 86.6% | viability, T/C (second compound 0.0316 µM, first compound 0.316 µM) 107% | viability, T/C (second compound 0.0316 µM, first compound 1 µM) 99.5% | viability, T/C (second compound 0.0316 µM, first compound 3.16 µM) 85.2% | viability, T/C (second compound 0.0316 µM, first compound 10 µM) 43.6% | viability, T/C (second compound 0.1 µM, first compound 0.0316 µM) 91.6% | viability, T/C (second compound 0.1 µM, first compound 0.1 µM) 108% | viability, T/C (second compound 0.1 µM, first compound 0.316 µM) 85.4% | viability, T/C (second compound 0.1 µM, first compound 1 µM) 89.2% | viability, T/C (second compound 0.1 µM, first compound 3.16 µM) 84.8% | viability, T/C (second compound 0.1 µM, first compound 10 µM) 49.1% | viability, T/C (second compound 0.316 µM, first compound 0.0316 µM) 99.4% | viability, T/C (second compound 0.316 µM, first compound 0.1 µM) 101% | viability, T/C (second compound 0.316 µM, first compound 0.316 µM) 102% | viability, T/C (second compound 0.316 µM, first compound 1 µM) 102% | viability, T/C (second compound 0.316 µM, first compound 3.16 µM) 82.4% | viability, T/C (second compound 0.316 µM, first compound 10 µM) 50% | viability, T/C (second compound 1 µM, first compound 0.0316 µM) 103% | viability, T/C (second compound 1 µM, first compound 0.1 µM) 100% | viability, T/C (second compound 1 µM, first compound 0.316 µM) 94.5% | viability, T/C (second compound 1 µM, first compound 1 µM) 96.8% | viability, T/C (second compound 1 µM, first compound 3.16 µM) 74.4% | viability, T/C (second compound 1 µM, first compound 10 µM) 49.9% | viability, T/C (second compound 3.16 µM, first compound 0.0316 µM) 103% | viability, T/C (second compound 3.16 µM, first compound 0.1 µM) 95.3% | viability, T/C (second compound 3.16 µM, first compound 0.316 µM) 85.2% | viability, T/C (second compound 3.16 µM, first compound 1 µM) 89.8% | viability, T/C (second compound 3.16 µM, first compound 3.16 µM) 79.8% | viability, T/C (second compound 3.16 µM, first compound 10 µM) 40.5% | viability, T/C (second compound 10 µM, first compound 0.0316 µM) 82.1% | viability, T/C (second compound 10 µM, first compound 0.1 µM) 78.8% | viability, T/C (second compound 10 µM, first compound 0.316 µM) 87% | viability, T/C (second compound 10 µM, first compound 1 µM) 78.1% | viability, T/C (second compound 10 µM, first compound 3.16 µM) 62.3% | viability, T/C (second compound 10 µM, first compound 10 µM) 42.1%
9.89 µM: IC50 [2]
9.97 µM: IC50 [3]
7.56 µM: IC50 [5]
9.98 µM: IC50 [4]
6.37 µM: IC50 [6]
8.41 µM: IC50 [1]

Cn1cnc2c(F)c(Nc3ccc(Br)cc3Cl)c(C(=O)NOCCO)cc21 + Cc1nc(NC(=O)N2CCCC2C(N)=O)sc1-c1ccnc(C(C)(C)C(F)(F)F)c1
< 0.00949 µM: IC50 [6]
2.79 µM: IC50 [4]
> 3 µM: IC50 [1] | IC50 [2] | IC50 [3]
inactive: viability, T/C (second compound 0.0316 µM, first compound 0.00949 µM) 98.8% | viability, T/C (second compound 0.0316 µM, first compound 0.03 µM) 95.7% | viability, T/C (second compound 0.0316 µM, first compound 0.0949 µM) 95.7% | viability, T/C (second compound 0.0316 µM, first compound 0.3 µM) 98.7% | viability, T/C (second compound 0.0316 µM, first compound 0.949 µM) 98.6% | viability, T/C (second compound 0.0316 µM, first compound 3 µM) 81.5% | viability, T/C (second compound 0.1 µM, first compound 0.00949 µM) 105% | viability, T/C (second compound 0.1 µM, first compound 0.03 µM) 102% | viability, T/C (second compound 0.1 µM, first compound 0.0949 µM) 98% | viability, T/C (second compound 0.1 µM, first compound 0.3 µM) 107% | viability, T/C (second compound 0.1 µM, first compound 0.949 µM) 99.4% | viability, T/C (second compound 0.1 µM, first compound 3 µM) 83.7% | viability, T/C (second compound 0.316 µM, first compound 0.00949 µM) 109% | viability, T/C (second compound 0.316 µM, first compound 0.03 µM) 99.7% | viability, T/C (second compound 0.316 µM, first compound 0.0949 µM) 98.6% | viability, T/C (second compound 0.316 µM, first compound 0.3 µM) 100% | viability, T/C (second compound 0.316 µM, first compound 0.949 µM) 92.6% | viability, T/C (second compound 0.316 µM, first compound 3 µM) 70.9% | viability, T/C (second compound 1 µM, first compound 0.00949 µM) 84% | viability, T/C (second compound 1 µM, first compound 0.03 µM) 79.1% | viability, T/C (second compound 1 µM, first compound 0.0949 µM) 71.4% | viability, T/C (second compound 1 µM, first compound 0.3 µM) 76.5% | viability, T/C (second compound 1 µM, first compound 0.949 µM) 68.7% | viability, T/C (second compound 1 µM, first compound 3 µM) 48.4% | viability, T/C (second compound 3.16 µM, first compound 0.00949 µM) 55.3% | viability, T/C (second compound 3.16 µM, first compound 0.03 µM) 50.3% | viability, T/C (second compound 3.16 µM, first compound 0.0949 µM) 50.7% | viability, T/C (second compound 3.16 µM, first compound 0.3 µM) 47.5% | viability, T/C (second compound 3.16 µM, first compound 0.949 µM) 39.9% | viability, T/C (second compound 3.16 µM, first compound 3 µM) 32.8% | viability, T/C (second compound 10 µM, first compound 0.00949 µM) 32.2% | viability, T/C (second compound 10 µM, first compound 0.03 µM) 25.8% | viability, T/C (second compound 10 µM, first compound 0.0949 µM) 23% | viability, T/C (second compound 10 µM, first compound 0.3 µM) 24.3% | viability, T/C (second compound 10 µM, first compound 0.949 µM) 17.1% | viability, T/C (second compound 10 µM, first compound 3 µM) 10.4%
0.1 µM: IC50 [5]

CNC(=O)c1ccc(N2C(=S)N(c3ccc(C#N)c(C(F)(F)F)c3)C(=O)C2(C)C)cc1F
inactive: viability, T/C (compound 0.0316 µM) 104% and 102% (2×) and 89% | viability, T/C (compound 0.1 µM) 99.5% [middle of 4 runs] | viability, T/C (compound 0.316 µM) 104% [middle of 4 runs] | viability, T/C (compound 1 µM) 102% [middle of 4 runs] | viability, T/C (compound 3.16 µM) 105% [middle of 4 runs] | viability, T/C (compound 10 µM) 102% [middle of 4 runs]
> 10 µM: IC50 (curve of compound)

Cn1ncc(Cl)c1-c1cc(C(=O)NC(CN)Cc2cccc(F)c2)sc1Cl (stereo not drawn)
inactive: viability, T/C (compound 0.0316 µM) 105% [middle of 4 runs] | viability, T/C (compound 0.1 µM) 97.5% [middle of 4 runs] | viability, T/C (compound 0.316 µM) 79.1% [middle of 4 runs] | viability, T/C (compound 1 µM) 49.9% [middle of 4 runs] | viability, T/C (compound 3.16 µM) 34.7% [middle of 4 runs] | viability, T/C (compound 10 µM) 34.5% [middle of 4 runs]
996 nM [middle of 4 runs]: IC50 (curve of compound)

— PubChem BioAssay AID1963982 (Molecular Pharmacology Branch, DTP, NCI, 2024)
